The subject of one data set is PDE7. Description: PDE7 Assay Procedure ([3H]-cAMP SPA). The data set is classed as biochemical. As to conditions: PDE7 inhibition, 15 nM 3',5'[3H]-cAMP, 1 hour at room temperature. The procedure: All compounds are resuspended in DMSO at a stock concentration of 10 mM. […] All dilutions are performed in 96 well plates.
For each reaction, 10 microliters of the diluted compounds are poured into “low binding” assay plates. 80 microliters of a reaction mixture containing 50 mM Tris pH 7.5, 8.3 mM MgCl2, 1.7 mM EGTA, and 15 nM 3′,5′[3H]-cAMP (around 150000 dpm) are added to each well. The reaction is initiated by adding 10 microliters of a solution containing PDE7 to the reaction mixture. The plate is then incubated under stirring for 1 hour at room temperature. After incubation the reaction is stopped with 50 microlitres (0.89 mg) of PDE SPA beads (Amersham Pharmacia Biotech RPNQ0150), and the resulting mixture is allowed to settle for 20 minutes before counting in a microtitre plate counter.
`COc1ccc(-c2nc(N3CCOCC3)c3c(C)c(C#N)sc3n2)cc1OC` [Example 31, 2-(3,4-Dimethoxyphenyl)-5-methyl-4-morpholin-4-ylthieno[2,3-d]pyrimidine-6-carbonitrile]: the IC50 (in general, the point on the concentration scale where inhibition reaches its midpoint) is below 1 µM.

Test system in another data set: not given
Assay: not given
Details: not given
Consider `COc1ccc(-c2nc(N3CCOCC3)c3c(C)c(C#N)sc3n2)cc1OC` [Example 31, 2-(3,4-Dimethoxyphenyl)-5-methyl-4-morpholin-4-ylthieno[2,3-d]pyrimidine-6-carbonitrile], for which the melting point (commonly the temperature, or range, at which the solid turns liquid) lay in the range of 194 to 196 °C. `COc1cc(-c2nc(NCCC(=O)O)c3c(C)c(C#N)sc3n2)cc(OC)c1OC` [Example 87, N-[6-Cyano-5-methyl-2-(3,4,5-trimethoxyphenyl)thieno[2,3-d]pyrimidin-4-yl]-beta-alanine] returned a melting point of 222 to 225 °C.

As for `COc1cc(-c2nc(-n3cccn3)c3c(C)c(C#N)sc3n2)cc(OC)c1OC` [Example 88, 5-Methyl-4-(1H-pyrazol-1-yl)-2-(3,4,5-trimethoxyphenyl)thieno[2,3-d]pyrimidine-6-carbonitrile], the melting point lay in the range of 209 to 214 °C. Consider `COc1cc(-c2nc(-n3ccnc3)c3c(C)c(C#N)sc3n2)cc(OC)c1OC` [Example 89, 4-(1H-Imidazol-1-yl)-5-methyl-2-(3,4,5-trimethoxyphenyl)thieno[2,3-d]pyrimidine-6-carbonitrile], for which the melting point was 238 to 240 °C. Still for that read-out and setting: the value for `COc1cc(-c2nc(-n3nccn3)c3c(C)c(C#N)sc3n2)cc(OC)c1OC` [Example 90, 5-Methyl-4-(2H-1,2,3-triazol-2-yl)-2-(3,4,5-trimethoxyphenyl)thieno[2,3-d]pyrimidine-6-carbonitrile] was 208 to 210 °C. As to `COc1cc(-c2nc(-n3cncn3)c3c(C)c(C#N)sc3n2)cc(OC)c1OC` [Example 91, 5-Methyl-4-(1H-1,2,4-triazol-1-yl)-2-(3,4,5-trimethoxyphenyl)thieno[2,3-d]pyrimidine-6-carbonitrile], the melting point lay in the range of 236 to 240 °C. `COc1ccc(Cc2nc(N3CCOCC3)c3c(C)c(C#N)sc3n2)cc1OC` [Example 92, 2-(3,4-Dimethoxybenzyl)-5-methyl-4-morpholin-4-ylthieno[2,3-d]pyrimidine-6-carbonitrile] showed a melting point of 67 to 70 °C.

`CNc1nc(Cc2ccc(OC)c(OC)c2)nc2sc(C#N)c(C)c12` [Example 94, 2-(3,4-Dimethoxybenzyl)-5-methyl-4-(methylamino)thieno[2,3-d]pyrimidine-6-carbonitrile] registered a melting point of 161 to 163 °C. For the molecule `CCNc1nc(Cc2ccc(OC)c(OC)c2)nc2sc(C#N)c(C)c12` [Example 95, 2-(3,4-Dimethoxybenzyl)-4-(ethylamino)-5-methylthieno[2,3-d]pyrimidine-6-carbonitrile], the melting point lay in the range of 125 to 126 °C. The molecule `CCN(CC)c1nc(Cc2ccc(OC)c(OC)c2)nc2sc(C#N)c(C)c12` [Example 101, 4-(Diethylamino)-2-(3,4-dimethoxybenzyl)-5-methylthieno[2,3-d]pyrimidine-6-carbonitrile] returned a melting point of 107 to 109 °C. On to `C=CCN(C)c1nc(Cc2ccc(OC)c(OC)c2)nc2sc(C#N)c(C)c12` [Example 102, 4-[Allyl(methyl)amino]-2-(3,4-dimethoxybenzyl)-5-methylthieno[2,3-d]pyrimidine-6-carbonitrile], for which the melting point was in the range of 98 to 100 °C. Regarding `COc1ccc(Cc2nc(NCCO)c3c(C)c(C#N)sc3n2)cc1OC` [Example 104, 2-(3,4-Dimethoxybenzyl)-4-[(2-hydroxyethyl)amino]-5-methylthieno[2,3-d]pyrimidine-6-carbonitrile], the melting point is 149 to 151 °C. `COc1ccc(Cc2nc(N(C)CCO)c3c(C)c(C#N)sc3n2)cc1OC` [Example 105, 2-(3,4-Dimethoxybenzyl)-4-[(2-hydroxyethyl)(methyl)amino]-5-methylthieno[2,3-d]pyrimidine-6-carbonitrile] gave a melting point of 62 to 63 °C.

Molecule `COCCNc1nc(Cc2ccc(OC)c(OC)c2)nc2sc(C#N)c(C)c12` [Example 106, 2-(3,4-Dimethoxybenzyl)-4-[(2-methoxyethyl)amino]-5-methylthieno[2,3-d]pyrimidine-6-carbonitrile] showed a melting point of 94 to 97 °C. In the case of `COc1cc(-c2nc(N(C)CCN(C)C)c3c(C)c(C#N)sc3n2)cc(OC)c1OC` [Example 107, 4-[[2-(Dimethylamino)ethyl](methyl)amino]-5-methyl-2-(3,4,5-trimethoxyphenyl) thieno[2,3-d]pyrimidine-6-carbonitrile], the melting point was 125 to 127 °C. `CNc1nc(Cc2cc(OC)c(OC)c(OC)c2)nc2sc(C#N)c(C)c12` [Example 110, 5-Methyl-4-(methylamino)-2-(3,4,5-trimethoxybenzyl)thieno[2,3-d]pyrimidine-6-carbonitrile] showed a melting point of 194 to 195 °C. Turning to `CCNc1nc(Cc2cc(OC)c(OC)c(OC)c2)nc2sc(C#N)c(C)c12` [Example 111, 4-(Ethylamino)-5-methyl-2-(3,4,5-trimethoxybenzyl)thieno[2,3-d]pyrimidine-6-carbonitrile], the melting point lay in the range of 164 to 165 °C. Molecule `COc1cc(Cc2nc(NC(C)C)c3c(C)c(C#N)sc3n2)cc(OC)c1OC` [Example 113, 4-(Isopropylamino)-5-methyl-2-(3,4,5-trimethoxybenzyl)thieno[2,3-d]pyrimidine-6-carbonitrile] returned a melting point of 143 to 147 °C. As to `CCC(C)Nc1nc(Cc2cc(OC)c(OC)c(OC)c2)nc2sc(C#N)c(C)c12` (centres unmarked) [Example 114, 4-(sec-Butylamino)-5-methyl-2-(3,4,5-trimethoxybenzyl)thieno[2,3-d]pyrimidine-6-carbonitrile], the melting point is 134 to 137 °C.

Turning to `CCC(CC)Nc1nc(Cc2cc(OC)c(OC)c(OC)c2)nc2sc(C#N)c(C)c12` [Example 115, 4-[(1-Ethylpropyl)amino]-5-methyl-2-(3,4,5-trimethoxybenzyl)thieno[2,3-d]pyrimidine-6-carbonitrile], the melting point was 127 to 129 °C.

In the case of `COc1cc(Cc2nc(NC(C)(C)C)c3c(C)c(C#N)sc3n2)cc(OC)c1OC` [Example 116, 4-(tert-Butylamino)-5-methyl-2-(3,4,5-trimethoxybenzyl)thieno[2,3-d]pyrimidine-6-carbonitrile], the melting point lay in the range of 146 to 148 °C.

Regarding `Cc1c(C#N)sc2nc(CCc3ccccc3)nc(NC3CCC3)c12` [Example 128, 4-(Cyclobutylamino)-5-methyl-2-(2-phenylethyl)thieno[2,3-d]pyrimidine-6-carbonitrile], the melting point is 153 to 155 °C. `Cc1c(C#N)sc2nc(CCCc3ccccc3)nc(N3CCN(C)CC3)c12` [Example 130, 5-Methyl-4-(4-methylpiperazin-1-yl)-2-(3-phenylpropyl)thieno[2,3-d]pyrimidine-6-carbonitrile] gave a melting point of 101 to 103 °C. In turn, `CCNc1nc(-c2cc(OC)cc(OC)c2)nc2sc(C#N)c(C)c12` [Example 134] gave a melting point of 207 to 208 °C. Still for that read-out and setting: the value for `COc1cc(Cc2nc(NCC(C)C)c3c(C)c(C#N)sc3n2)cc(OC)c1OC` [Example 135, 4-(Isobutylamino)-5-methyl-2-(3,4,5-trimethoxybenzyl)thieno[2,3-d]pyrimidine-6-carbonitrile] was 129 to 131 °C.

Source of the values: US7662814B2, “4-aminothieno[2,3-d]pyrimidine-6-carbonitrile derivatives as PDE7 inhibitors” (Laboratorios Almirall, S.A., priority 2003, dated 2010).
